From US7569547B2, “Inhibiting furin with polybasic peptides” (Board of Supervisors of Louisiana State University and …, priority 2001, dated 2009)
Non-standard residues stand in square brackets, D forms with d. Residues, ends and D or L forms follow the SMILES beside them.

Key:
Type in all cases: biochemical
PC2 = target: T1, PC2 (Mus musculus, UniProt P21661); test: PC2 enzyme assay, hydrolysis of pERTKR-MCA at pH 5.0; design: made in house
T1 sequence (P21661 109-637): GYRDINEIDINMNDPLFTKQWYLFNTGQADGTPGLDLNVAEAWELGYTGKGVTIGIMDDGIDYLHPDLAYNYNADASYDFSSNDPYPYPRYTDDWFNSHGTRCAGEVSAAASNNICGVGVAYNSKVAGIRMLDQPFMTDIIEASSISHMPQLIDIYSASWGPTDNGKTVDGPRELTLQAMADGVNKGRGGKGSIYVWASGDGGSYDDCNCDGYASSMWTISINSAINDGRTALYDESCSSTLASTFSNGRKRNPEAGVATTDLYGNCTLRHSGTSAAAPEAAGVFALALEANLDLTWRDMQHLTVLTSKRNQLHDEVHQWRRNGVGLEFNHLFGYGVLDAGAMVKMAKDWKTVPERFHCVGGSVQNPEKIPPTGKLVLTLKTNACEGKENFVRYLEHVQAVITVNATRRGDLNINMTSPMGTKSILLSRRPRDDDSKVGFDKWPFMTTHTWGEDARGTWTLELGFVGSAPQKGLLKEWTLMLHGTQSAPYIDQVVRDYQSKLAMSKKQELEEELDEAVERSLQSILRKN
Procedure: (§1) The proprotein convertases PC1 and PC2 were prepared by ion exchange chromatography as described in G. Frenette et al., Biochim. Biophys. Acta., vol. 1334, pp. 109-115 (1997).
(§2) Enzyme Assays and Hexapeptide Library Screening. Enzyme assays for PC1 and PC2 were performed at pH 5.0 using pERTKR-MCA (Peptides International Inc., Louisville, Ky.) as described in E. Apletalina et al., J. Biol. Chem., vol. 273, pp. 26589-26595 (1998). The assay for furin was performed using the same substrate at pH 7.0 in 100 mM HEPES, 5 mM CaCl2, 0.1% Brij 35. All assays were performed at 37° C. in a 96 well fluorometer (Labsystems) at an excitation wavelength of 380 nm with emission monitored at a wavelength of 460 nm. The total volume was 50 μL. Unless otherwise stated, the final substrate concentration for all assays was 200 μM. When used in a particular experiment, the inhibitory peptides were pre-incubated with enzyme for 30 min at room temperature prior to addition of substrate. All assays were performed in duplicate or triplicate.

recombinant mouse furin = target: T2, recombinant mouse furin (Mus musculus, UniProt P23188); test: Furin enzyme assay, hydrolysis of pERTKR-MCA at pH 7.0; conditions: for type of inhibition of furin (Lineweaver-Burk plots): furin 30 nM, 0, 20 or 40 μM hexapeptide, polyarginines forty-fold lower
T2 construct: truncated N-terminally to the transmembrane domain at His^711 using PCR; myc (C, cleaved yes); hexa-His (C, cleaved yes); made in house; host or cells: DG44 CHO cells, conditioned medium
T2 sequence (P23188 108-714 limits assumed): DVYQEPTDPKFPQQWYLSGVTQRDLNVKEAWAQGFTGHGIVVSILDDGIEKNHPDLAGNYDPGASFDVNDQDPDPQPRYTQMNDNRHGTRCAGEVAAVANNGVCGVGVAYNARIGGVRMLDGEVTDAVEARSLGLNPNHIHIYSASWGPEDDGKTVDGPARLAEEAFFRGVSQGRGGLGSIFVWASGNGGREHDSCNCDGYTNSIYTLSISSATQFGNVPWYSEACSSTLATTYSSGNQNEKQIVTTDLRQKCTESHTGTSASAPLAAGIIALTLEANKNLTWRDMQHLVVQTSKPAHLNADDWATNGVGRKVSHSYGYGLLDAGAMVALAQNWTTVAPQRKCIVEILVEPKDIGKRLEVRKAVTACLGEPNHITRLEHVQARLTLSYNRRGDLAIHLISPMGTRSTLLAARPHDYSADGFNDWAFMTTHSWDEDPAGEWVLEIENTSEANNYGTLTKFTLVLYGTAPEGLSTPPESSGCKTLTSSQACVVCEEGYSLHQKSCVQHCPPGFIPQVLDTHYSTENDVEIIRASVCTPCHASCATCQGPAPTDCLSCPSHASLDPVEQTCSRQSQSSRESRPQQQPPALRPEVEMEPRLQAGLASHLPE
Source text: Recombinant convertase preparation. The mouse furin clone was a kind gift from K. Nakayama (Fukuoka University School of Medicine, Fukuoka, Japan). The mouse furin cDNA was truncated N-terminally to the transmembrane domain at His^711 using PCR. This PCR product was then subcloned into pcDNA3.1 (−) myc-His (Invitrogen) at the Nhe1 and Xba1 restriction sites. Dihydrofolate-reductase-negative DG44 Chinese Hamster Ovary (CHO) cells (L. Chasin, Columbia University, New York, N.Y.) were transfected using Lipofectin (Life Technologies), and colonies were selected at 37° C. in 5% CO2 in α-MEM (lacking nucleosides) containing 10% well-dialyzed fetal bovine serum (Life Technologies). Conditioned media from colonies were screened using an enzyme assay (see below), and a high-expressing clone was selected. Overexpression of furin was achieved by increasing the methotrexate concentration from 5 nM to 50 μM in five- to ten-fold steps as described in I. Lindberg et al., Methods Neurosci., vol. 23, pp. 94-108 (1995). The amplified lines were tested for increased furin expression by enzyme assay. Once the 50 μM methotrexate level had been reached, cells were split at ratios of 1:6 twice a week. 100 mL of conditioned media (OptiMEM, Life Technologies) containing 100 μg/mL aprotinin (Miles Laboratories, Kankakee, Ill.) was collected from confluent roller bottles every 24 h. The medium was then centrifuged at low speed to remove cells, and the supernatant was stored at −80° C. until use.
Purification of furin: Conditioned medium was thawed, pooled, and diluted 1:3.5 with buffer A (20 mM HEPES, 0.1% Brij 35, 5 mM CaCl2, pH 7.4), and pumped at 40 mL/min through a Sartorius D100 anion exchange membrane. The membrane was washed with 40 mL of buffer A, followed by 40 mL of buffer A containing 50 mM NaCl, and finally by 40 mL of buffer A containing 200 mM NaCl. The fraction eluting with 200 mM NaCl was diluted 1:4 with buffer A and applied to a 1 mL Pharmacia Mono Q HR5/5 anion exchange column at a flow rate of 1 mL/min. Following a 10 mL wash with buffer A, furin was eluted by a linear increase of 0 to 500 mM NaCl in buffer A over 30 mL; and 2 mL fractions were collected. Fractions containing peak activity were pooled, and 200 μL aliquots were subjected to gel permeation chromatography using a Pharmacia Superose 12 column at a flow rate of 0.5 mL/min of buffer A containing 200 mM NaCl. Fractions were assayed for activity as described below; protein content was determined using the Bradford method. All purification steps were performed at 4° C.
as §2

PACE4 = target: T3, PACE4 (Rattus norvegicus, UniProt Q63415); test: PACE4 enzyme assay, hydrolysis of pERTKR-MCA
T3 construct: made in house; host or cells: stably transfected hEK-293 cells (gift of R. E. Mains), conditioned medium
T3 sequence (Q63415 133-937): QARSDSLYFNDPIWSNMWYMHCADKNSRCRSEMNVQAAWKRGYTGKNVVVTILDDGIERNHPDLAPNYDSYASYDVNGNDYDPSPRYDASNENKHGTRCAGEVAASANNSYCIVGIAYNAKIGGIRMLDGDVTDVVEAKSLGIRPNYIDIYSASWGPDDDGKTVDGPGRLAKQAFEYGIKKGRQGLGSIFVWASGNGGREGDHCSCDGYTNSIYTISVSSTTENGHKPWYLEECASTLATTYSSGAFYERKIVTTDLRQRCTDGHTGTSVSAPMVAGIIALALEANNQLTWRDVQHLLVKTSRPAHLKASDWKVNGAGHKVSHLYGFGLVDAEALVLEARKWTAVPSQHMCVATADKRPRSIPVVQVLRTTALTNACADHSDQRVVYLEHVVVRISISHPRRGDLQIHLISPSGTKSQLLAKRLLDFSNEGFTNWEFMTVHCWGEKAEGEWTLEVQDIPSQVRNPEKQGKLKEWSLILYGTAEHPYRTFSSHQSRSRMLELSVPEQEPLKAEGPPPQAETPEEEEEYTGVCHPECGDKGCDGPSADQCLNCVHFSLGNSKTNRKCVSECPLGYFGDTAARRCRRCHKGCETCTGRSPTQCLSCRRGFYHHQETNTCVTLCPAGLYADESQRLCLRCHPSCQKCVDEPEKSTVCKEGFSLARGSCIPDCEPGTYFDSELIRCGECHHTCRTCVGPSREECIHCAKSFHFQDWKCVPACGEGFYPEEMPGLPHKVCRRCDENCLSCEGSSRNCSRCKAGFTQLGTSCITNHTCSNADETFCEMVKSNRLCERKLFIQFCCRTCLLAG
Procedure: The proprotein convertase PACE4 was partially purified from an overnight-conditioned medium of stably transfected hEK-293 human embryonic kidney cells (a generous gift of R. E. Mains, Johns Hopkins University School of Medicine, Baltimore, Md.). Briefly, 100 mL of conditioned medium (OptiMEM containing 100 μg/mL aprotinin) was loaded onto an Econo-Pac Q (Bio-Rad) column at 4 mL/min, washed with 10 mL of buffer A, and then eluted with a linear gradient of buffer A containing 500 mM NaCl over 50 mL. The active fractions were then diluted 1:4 with buffer A prior to loading onto a Mono Q column (Pharmacia) at 1 mL/min. The PACE4 was eluted with a linear gradient of buffer A containing 500 mM NaCl over 10 mL. The resulting active fractions were then pooled and stored at −80° C. until use.
as §2

PC1 = target: T4, PC1 (Mus musculus, UniProt P63239); test: biochemical
T4 construct: made in house
T4 sequence (P63239 111-753): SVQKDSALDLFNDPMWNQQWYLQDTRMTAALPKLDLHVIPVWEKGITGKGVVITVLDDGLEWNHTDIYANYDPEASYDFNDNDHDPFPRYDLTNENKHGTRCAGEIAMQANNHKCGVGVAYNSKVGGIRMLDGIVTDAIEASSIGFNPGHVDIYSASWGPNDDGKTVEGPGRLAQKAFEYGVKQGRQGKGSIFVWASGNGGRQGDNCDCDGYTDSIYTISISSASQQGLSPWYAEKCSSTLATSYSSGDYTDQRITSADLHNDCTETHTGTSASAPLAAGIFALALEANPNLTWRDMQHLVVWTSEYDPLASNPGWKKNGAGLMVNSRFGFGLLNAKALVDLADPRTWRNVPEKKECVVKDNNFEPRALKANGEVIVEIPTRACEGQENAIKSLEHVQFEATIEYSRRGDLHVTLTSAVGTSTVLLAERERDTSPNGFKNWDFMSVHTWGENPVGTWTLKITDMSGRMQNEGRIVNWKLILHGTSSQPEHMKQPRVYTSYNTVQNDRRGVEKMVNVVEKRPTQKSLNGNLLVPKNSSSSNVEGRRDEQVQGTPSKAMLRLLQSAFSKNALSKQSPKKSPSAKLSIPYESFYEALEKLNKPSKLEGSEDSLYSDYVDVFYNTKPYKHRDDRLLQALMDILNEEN
Procedure: as §1, §2

`CC(=O)N[C@@H](CC(C)C)C(=O)N[C@@H](CC(C)C)C(=O)N[C@@H](CCCN=C(N)N)C(=O)N[C@H](C(=O)N[C@@H](CCCCN)C(=O)N[C@@H](CCCN=C(N)N)C(=O)O)C(C)C` [Ac-LLRVKR] showed a Ki (PC2) of 1.3 ± 0.6 µM.
Work on `CC[C@@H](C)[C@@H](NC(=O)[C@@H](CCCNC(=N)N)NC(=O)[C@@H](CCCNC(=N)N)NC(=O)[C@@H](CCCNC(=N)N)NC(=O)[C@@H](Cc1c[nH]c2ccccc12)NC(C)=O)C(=O)N[C@H](CC(C)C)C(N)=O` [Ac-wrrril-NH2] (Ac-[dW][dR][dR][dR][dI][dL]-NH2) yielded a Ki (recombinant mouse furin) of 22.7 ± 4.3 µM and a Ki (PC2) of 601 ± 200 µM.
`CC[C@@H](C)[C@@H](NC(=O)[C@@H](CCCNC(=N)N)NC(=O)[C@@H](CCCNC(=N)N)NC(=O)[C@@H](CCCNC(=N)N)NC(=O)[C@@H](Cc1c[nH]c2ccccc12)NC(C)=O)C(=O)N[C@H](CCCNC(=N)N)C(N)=O` [Ac-wrrrir-NH2] (Ac-[dW][dR][dR][dR][dI][dR]-NH2) showed a Ki (recombinant mouse furin) of 7 ± 0.9 µM and a Ki (PC2) of 399 ± 75 µM.
`CC(=O)N[C@H](Cc1c[nH]c2ccccc12)C(=O)N[C@H](CCCNC(=N)N)C(=O)N[C@H](CCCNC(=N)N)C(=O)N[C@H](CCCNC(=N)N)C(=O)N[C@H](CCCNC(=N)N)C(=O)N[C@H](CC(C)C)C(N)=O` [Ac-wrrrrl-NH2] (Ac-[dW][dR][dR][dR][dR][dL]-NH2) was tested, and the Ki (recombinant mouse furin) was 5.3 ± 1 µM and the Ki (PC2) was 203 ± 20 µM.
For `CC(=O)N[C@H](Cc1c[nH]c2ccccc12)C(=O)N[C@H](CCCNC(=N)N)C(=O)N[C@H](CCCNC(=N)N)C(=O)N[C@H](CCCNC(=N)N)C(=O)N[C@H](CCCNC(=N)N)C(=O)N[C@H](CCCNC(=N)N)C(N)=O` [Ac-wrrrrr-NH2] (Ac-[dW][dR][dR][dR][dR][dR]-NH2), the Ki (recombinant mouse furin) was 2.4 ± 0.8 µM, the “type of inhibition of furin (Lineweaver-Burk plots)” value (recombinant mouse furin) was “strictly competitive-type inhibition” and the Ki (PC2) was 334 ± 37 µM.
`N=C(N)NCCC[C@H](NC(=O)[C@H](CCCNC(=N)N)NC(=O)[C@H](CCCNC(=N)N)NC(=O)[C@H](CCCNC(=N)N)NC(=O)[C@H](CCCNC(=N)N)NC(=O)[C@H](CCCNC(=N)N)NC(=O)[C@@H](N)CCCNC(=N)N)C(=O)O` [Hepta-L-arginine] showed a Ki (PACE4) of 0.24 ± 0.045 µM and a Ki (PC1) of 5.2 ± 1.2 µM.
`CC(C)C[C@H](NC(=O)[C@@H](N)CC(C)C)C(=O)N[C@@H](CCCNC(=N)N)C(=O)N[C@H](C(=O)N[C@@H](CCCCN)C(=O)N[C@@H](CCCNC(=N)N)C(N)=O)C(C)C` [LLRVKR-NH2] gave a Ki (PC2) of 2.3 ± 0.2 µM.
With `CC(C)C[C@H](NC(=O)[C@@H](N)CC(C)C)C(=O)N[C@@H](CCCNC(=N)N)C(=O)N[C@H](C(=O)N[C@@H](CCCCN)C(=O)N[C@@H](CCCNC(=N)N)C(=O)O)C(C)C` [LLRVKR] the “increase of inhibitory potency against furin on removing the terminal amide and acetyl groups” value (recombinant mouse furin; LLRVKR compared with acetylated and amidated form) was “eight-fold” and the Ki (PC2) was 3.7 ± 0.17 µM.
`N=C(N)NCCC[C@H](NC(=O)[C@H](CCCNC(=N)N)NC(=O)[C@H](CCCNC(=N)N)NC(=O)[C@H](CCCNC(=N)N)NC(=O)[C@H](CCCNC(=N)N)NC(=O)[C@H](CCCNC(=N)N)NC(=O)[C@H](CCCNC(=N)N)NC(=O)[C@@H](N)CCCNC(=N)N)C(=O)O` [Octa-L-arginine] showed a Ki (PACE4) of 0.15 ± 0.06 µM and a Ki (PC1) of 5.1 ± 2 µM.
Ac-HHKRRR-NH2 [Ac-HHKRRR-NH2] gave a Ki (PC2) of 235 ± 16 µM.
Ac-HRKRRR-NH2 [Ac-HRKRRR-NH2] gave a Ki (PC2) of 309 ± 29 µM.
With Ac-KHKRRR-NH2 [Ac-KHKRRR-NH2] the Ki (PC2) was 280 ± 29 µM.
With Ac-KRKRRR-NH2 [Ac-KRKRRR-NH2] the Ki (PC2) was 391 ± 60 µM.
Work on Ac-MHKRRR-NH2 [Ac-MHKRRR-NH2] yielded a Ki (PC2) of 216 ± 13 µM.
Work on Ac-MRKRRR-NH2 [Ac-MRKRRR-NH2] yielded a Ki (PC2) of 1500 µM.
In the case of Ac-RHKRRR-NH2 [Ac-RHKRRR-NH2], the Ki (recombinant mouse furin) is reported as 3.4 ± 0.6 µM and the Ki (PC2) is reported as 152 ± 30 µM.
With Ac-RRKRRR-NH2 [Ac-RRKRRR-NH2] the “type of inhibition of furin (Lineweaver-Burk plots)” value (recombinant mouse furin) was “strictly competitive-type inhibition” and the Ki (PC2) was 461 ± 75 µM.
